This passage reports IC50 results from PubChem BioAssay AID493251 (Sanford-Burnham Center for Chemical Genomics, 2011).

Where “and” joins values, the source holds several entries; their conditions need not be identical. Equal values may be shown once.

This assay concerns HEK293T NF-kB-Luc cytotoxicity, resazurin fluorescence, 14 h. Kind of assay: cytotoxicity in HEK293T NF-kB-Luc cells, SAR follow-up, cytotoxicity control for NF-kB activator project, cell-based, resazurin fluorescence (AID 493251). For orientation: Resazurin is reduced to fluorescent resorufin, in cell work by metabolically active cells.

The term IC50 denotes the concentration that inhibits the measured activity by half. Low values mean inhibition by little substance, high ones a need for much substance.

As to `CCCC(=O)NC(c1ccc(OC)cc1)c1ccc2cccnc2c1O` (stereo unspecified), the IC50 is 15.8 µM and > 33.2 µM (inactive).
